Test system: Huh-7
Assay: Cytotoxic concentration against Huh-7 liver cells in XTT cytotoxicity assay
Assay type: functional
Conditions: Homo sapiens

SMILES	CC50 [µM]
CCC[C@H](NC(=O)[C@@H]1C2CCCC2CN1C(=O)[C@@H](NC(=O)[C@@H](NC(=O)c1cnccn1)C(C)(C)C)C(C)(C)C)C(=O)C(=O)NC1CC1 (stereo partly specified)	> 100
CCCC(NC(=O)[C@@H]1[C@H]2CCC[C@H]2CN1C(=O)[C@@H](NC(=O)[C@@H](NC(=O)c1cnccn1)C(C)C)C(C)(C)C)C(=O)C(=O)NC1CC1 (stereo partly specified)	> 100
CCCC(NC(=O)[C@@H]1C2CCCC2CN1C(=O)[C@@H](NC(=O)[C@@H](NC(=O)c1cnccn1)C1CCCCC1)C(C)(C)C)C(=O)C(=O)NC[C@@H](C)CC (stereo partly specified)	31.7
CCCC(NC(=O)[C@@H]1C2CCCC2CN1C(=O)[C@@H](NC(=O)[C@H](CC1CCCCC1)NC(=O)c1cnccn1)C(C)(C)C)C(=O)C(=O)NC1CC1 (stereo partly specified)	45.5
CC(C)(C)[C@H](NC(=O)[C@@H](NC(=O)c1cnccn1)C1CCCCC1)C(=O)N1CC2CCCC2[C@H]1C(=O)NC(CC(F)F)C(=O)C(=O)NC1CC1 (stereo partly specified)	> 100
CCCC(NC(=O)[C@@H]1[C@H]2CCC[C@H]2CN1C(=O)[C@@H](NC(=O)[C@@H](NC(=O)c1cnccn1)C1CCCCC1)C(C)(C)C)C(=O)C(=O)NC1CC1 (stereo partly specified)	86.5

Biological target: Plasminogen (Homo sapiens, UniProt P00747)
Assay: Binding affinity towards human plasmin
Conditions: not given

Sequence of Plasminogen (P00747 97-580 limits assumed): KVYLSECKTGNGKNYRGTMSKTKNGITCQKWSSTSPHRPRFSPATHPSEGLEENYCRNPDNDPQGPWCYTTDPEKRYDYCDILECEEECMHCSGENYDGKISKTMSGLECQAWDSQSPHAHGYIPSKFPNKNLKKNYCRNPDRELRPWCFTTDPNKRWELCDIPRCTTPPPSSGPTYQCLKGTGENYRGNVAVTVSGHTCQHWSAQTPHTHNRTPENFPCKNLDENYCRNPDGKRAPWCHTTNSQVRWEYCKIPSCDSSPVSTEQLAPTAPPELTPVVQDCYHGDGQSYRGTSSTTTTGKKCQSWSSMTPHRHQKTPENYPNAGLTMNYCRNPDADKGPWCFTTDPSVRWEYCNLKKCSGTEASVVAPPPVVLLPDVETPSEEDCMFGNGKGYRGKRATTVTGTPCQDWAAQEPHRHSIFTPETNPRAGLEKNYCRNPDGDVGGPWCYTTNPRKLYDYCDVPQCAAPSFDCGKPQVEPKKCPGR
Sequence of Plasminogen (P00747 581-810 limits assumed): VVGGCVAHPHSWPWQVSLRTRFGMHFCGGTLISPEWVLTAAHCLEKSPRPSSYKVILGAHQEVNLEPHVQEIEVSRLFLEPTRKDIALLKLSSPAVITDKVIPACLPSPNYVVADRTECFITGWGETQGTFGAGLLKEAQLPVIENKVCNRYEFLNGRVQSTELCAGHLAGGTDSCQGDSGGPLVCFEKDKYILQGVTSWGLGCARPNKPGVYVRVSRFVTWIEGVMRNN

SMILES	Ki [µM]
CCC[C@H](NC(=O)[C@@H]1C2CCCC2CN1C(=O)[C@@H](NC(=O)[C@@H](NC(=O)c1cnccn1)C(C)(C)C)C(C)(C)C)C(=O)C(=O)NC1CC1 (stereo partly specified)	> 50
CCCC(NC(=O)[C@@H]1[C@H]2CCC[C@H]2CN1C(=O)[C@@H](NC(=O)[C@@H](NC(=O)c1cnccn1)C(C)C)C(C)(C)C)C(=O)C(=O)NC1CC1 (stereo partly specified)	> 50
CC(C)(C)[C@H](NC(=O)[C@@H](NC(=O)c1cnccn1)C1CCCCC1)C(=O)N1CC2CCCC2[C@H]1C(=O)NC(CC(F)F)C(=O)C(=O)NC1CC1 (stereo partly specified)	> 50
CCCC(NC(=O)[C@@H]1[C@H]2CCC[C@H]2CN1C(=O)[C@@H](NC(=O)[C@@H](NC(=O)c1cnccn1)C1CCCCC1)C(C)(C)C)C(=O)C(=O)NC1CC1 (stereo partly specified)	> 50

Biological target: Trypsin (Homo sapiens, UniProt P07477+P07478+P35030)
Assay: Binding affinity towards human trypsin
Assay type: protein assay
Conditions: not given

SMILES	Ki [µM]
CCC[C@H](NC(=O)[C@@H]1C2CCCC2CN1C(=O)[C@@H](NC(=O)[C@@H](NC(=O)c1cnccn1)C(C)(C)C)C(C)(C)C)C(=O)C(=O)NC1CC1 (stereo partly specified)	> 50
CCCC(NC(=O)[C@@H]1[C@H]2CCC[C@H]2CN1C(=O)[C@@H](NC(=O)[C@@H](NC(=O)c1cnccn1)C(C)C)C(C)(C)C)C(=O)C(=O)NC1CC1 (stereo partly specified)	> 50
CC(C)(C)[C@H](NC(=O)[C@@H](NC(=O)c1cnccn1)C1CCCCC1)C(=O)N1CC2CCCC2[C@H]1C(=O)NC(CC(F)F)C(=O)C(=O)NC1CC1 (stereo partly specified)	> 50
CCCC(NC(=O)[C@@H]1[C@H]2CCC[C@H]2CN1C(=O)[C@@H](NC(=O)[C@@H](NC(=O)c1cnccn1)C1CCCCC1)C(C)(C)C)C(=O)C(=O)NC1CC1 (stereo partly specified)	> 50

Test system: Huh-7
Assay: Ratio of CC50 to that of IC50 value
Assay type: functional, Homo sapiens
Conditions: not given

SMILES	Ratio
CCC[C@H](NC(=O)[C@@H]1C2CCCC2CN1C(=O)[C@@H](NC(=O)[C@@H](NC(=O)c1cnccn1)C(C)(C)C)C(C)(C)C)C(=O)C(=O)NC1CC1 (stereo partly specified)	>77
CCCC(NC(=O)[C@@H]1C2CCCC2CN1C(=O)[C@@H](NC(=O)[C@@H](NC(=O)c1cnccn1)C1CCCCC1)C(C)(C)C)C(=O)C(=O)NC[C@@H](C)CC (stereo partly specified)	32
CCCC(NC(=O)[C@@H]1C2CCCC2CN1C(=O)[C@@H](NC(=O)[C@H](CC1CCCCC1)NC(=O)c1cnccn1)C(C)(C)C)C(=O)C(=O)NC1CC1 (stereo partly specified)	16
CC(C)(C)[C@H](NC(=O)[C@@H](NC(=O)c1cnccn1)C1CCCCC1)C(=O)N1CC2CCCC2[C@H]1C(=O)NC(CC(F)F)C(=O)C(=O)NC1CC1 (stereo partly specified)	250
CCCC(NC(=O)[C@@H]1[C@H]2CCC[C@H]2CN1C(=O)[C@@H](NC(=O)[C@@H](NC(=O)c1cnccn1)C1CCCCC1)C(C)(C)C)C(=O)C(=O)NC1CC1 (stereo partly specified)	157

Biological target: Prothrombin (Homo sapiens, UniProt P00734)
Assay: Binding affinity towards human thrombin
Conditions: not given

SMILES	Ki [µM]
CCC[C@H](NC(=O)[C@@H]1C2CCCC2CN1C(=O)[C@@H](NC(=O)[C@@H](NC(=O)c1cnccn1)C(C)(C)C)C(C)(C)C)C(=O)C(=O)NC1CC1 (stereo partly specified)	> 50
CCCC(NC(=O)[C@@H]1[C@H]2CCC[C@H]2CN1C(=O)[C@@H](NC(=O)[C@@H](NC(=O)c1cnccn1)C(C)C)C(C)(C)C)C(=O)C(=O)NC1CC1 (stereo partly specified)	> 50
CC(C)(C)[C@H](NC(=O)[C@@H](NC(=O)c1cnccn1)C1CCCCC1)C(=O)N1CC2CCCC2[C@H]1C(=O)NC(CC(F)F)C(=O)C(=O)NC1CC1 (stereo partly specified)	> 50
CCCC(NC(=O)[C@@H]1[C@H]2CCC[C@H]2CN1C(=O)[C@@H](NC(=O)[C@@H](NC(=O)c1cnccn1)C1CCCCC1)C(C)(C)C)C(=O)C(=O)NC1CC1 (stereo partly specified)	> 50

Biological target: Plasma kallikrein (Homo sapiens, UniProt P03952)
Assay: Binding affinity towards human kallikrein
Conditions: not given

Sequence of Plasma kallikrein (P03952 20-390 limits assumed): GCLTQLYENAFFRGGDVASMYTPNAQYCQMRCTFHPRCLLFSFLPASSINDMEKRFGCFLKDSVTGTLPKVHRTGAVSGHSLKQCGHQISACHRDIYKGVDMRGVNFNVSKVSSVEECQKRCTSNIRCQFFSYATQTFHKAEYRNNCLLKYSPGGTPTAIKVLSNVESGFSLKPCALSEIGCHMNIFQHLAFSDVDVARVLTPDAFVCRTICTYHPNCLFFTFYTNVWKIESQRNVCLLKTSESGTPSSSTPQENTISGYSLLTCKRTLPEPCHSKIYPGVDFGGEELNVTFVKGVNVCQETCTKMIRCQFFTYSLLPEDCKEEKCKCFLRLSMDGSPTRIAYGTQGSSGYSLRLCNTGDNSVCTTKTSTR
Sequence of Plasma kallikrein (P03952 391-638 limits assumed): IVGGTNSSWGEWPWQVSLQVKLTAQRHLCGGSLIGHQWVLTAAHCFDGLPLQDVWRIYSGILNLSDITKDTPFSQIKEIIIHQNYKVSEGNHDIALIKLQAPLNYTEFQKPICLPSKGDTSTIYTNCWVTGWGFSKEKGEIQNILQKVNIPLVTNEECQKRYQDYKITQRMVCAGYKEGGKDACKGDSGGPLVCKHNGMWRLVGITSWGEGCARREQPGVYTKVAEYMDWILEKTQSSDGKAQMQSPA

SMILES	Ki [µM]
CCC[C@H](NC(=O)[C@@H]1C2CCCC2CN1C(=O)[C@@H](NC(=O)[C@@H](NC(=O)c1cnccn1)C(C)(C)C)C(C)(C)C)C(=O)C(=O)NC1CC1 (stereo partly specified)	> 50
CCCC(NC(=O)[C@@H]1[C@H]2CCC[C@H]2CN1C(=O)[C@@H](NC(=O)[C@@H](NC(=O)c1cnccn1)C(C)C)C(C)(C)C)C(=O)C(=O)NC1CC1 (stereo partly specified)	> 50
CC(C)(C)[C@H](NC(=O)[C@@H](NC(=O)c1cnccn1)C1CCCCC1)C(=O)N1CC2CCCC2[C@H]1C(=O)NC(CC(F)F)C(=O)C(=O)NC1CC1 (stereo partly specified)	> 50
CCCC(NC(=O)[C@@H]1[C@H]2CCC[C@H]2CN1C(=O)[C@@H](NC(=O)[C@@H](NC(=O)c1cnccn1)C1CCCCC1)C(C)(C)C)C(=O)C(=O)NC1CC1 (stereo partly specified)	> 50

Biological target: Cathepsin B (Homo sapiens, UniProt P07858)
Assay: Binding affinity towards human cathepsin B
Conditions: not given

SMILES	Ki [µM]
CCC[C@H](NC(=O)[C@@H]1C2CCCC2CN1C(=O)[C@@H](NC(=O)[C@@H](NC(=O)c1cnccn1)C(C)(C)C)C(C)(C)C)C(=O)C(=O)NC1CC1 (stereo partly specified)	3.9
CCCC(NC(=O)[C@@H]1[C@H]2CCC[C@H]2CN1C(=O)[C@@H](NC(=O)[C@@H](NC(=O)c1cnccn1)C(C)C)C(C)(C)C)C(=O)C(=O)NC1CC1 (stereo partly specified)	1.6
CC(C)(C)[C@H](NC(=O)[C@@H](NC(=O)c1cnccn1)C1CCCCC1)C(=O)N1CC2CCCC2[C@H]1C(=O)NC(CC(F)F)C(=O)C(=O)NC1CC1 (stereo partly specified)	40
CCCC(NC(=O)[C@@H]1[C@H]2CCC[C@H]2CN1C(=O)[C@@H](NC(=O)[C@@H](NC(=O)c1cnccn1)C1CCCCC1)C(C)(C)C)C(=O)C(=O)NC1CC1 (stereo partly specified)	3

Biological target: Chymotrypsinogen B (Homo sapiens, UniProt P17538)
Assay: Binding affinity towards human Chymotrypsinogen
Conditions: not given

Sequence of Chymotrypsinogen B (P17538 34-164 limits assumed, other chains not shown): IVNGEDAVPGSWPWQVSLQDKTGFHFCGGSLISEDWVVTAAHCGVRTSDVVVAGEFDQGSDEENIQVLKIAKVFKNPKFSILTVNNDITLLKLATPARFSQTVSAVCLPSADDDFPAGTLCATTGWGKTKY
Sequence of Chymotrypsinogen B (P17538 167-263 limits assumed, other chains not shown): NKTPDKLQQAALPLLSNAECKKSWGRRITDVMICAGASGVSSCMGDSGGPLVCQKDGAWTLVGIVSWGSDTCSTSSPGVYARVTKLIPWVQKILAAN

SMILES	Ki [µM]
CCC[C@H](NC(=O)[C@@H]1C2CCCC2CN1C(=O)[C@@H](NC(=O)[C@@H](NC(=O)c1cnccn1)C(C)(C)C)C(C)(C)C)C(=O)C(=O)NC1CC1 (stereo partly specified)	> 50
CCCC(NC(=O)[C@@H]1[C@H]2CCC[C@H]2CN1C(=O)[C@@H](NC(=O)[C@@H](NC(=O)c1cnccn1)C(C)C)C(C)(C)C)C(=O)C(=O)NC1CC1 (stereo partly specified)	> 50
CC(C)(C)[C@H](NC(=O)[C@@H](NC(=O)c1cnccn1)C1CCCCC1)C(=O)N1CC2CCCC2[C@H]1C(=O)NC(CC(F)F)C(=O)C(=O)NC1CC1 (stereo partly specified)	> 50
CCCC(NC(=O)[C@@H]1[C@H]2CCC[C@H]2CN1C(=O)[C@@H](NC(=O)[C@@H](NC(=O)c1cnccn1)C1CCCCC1)C(C)(C)C)C(=O)C(=O)NC1CC1 (stereo partly specified)	> 50

Biological target: NS3 (Hepatitis C virus, UniProt A3EZJ3)
Assay: Inhibition of HCV NS3 protease in the pNA based inhibition assay
Parameters: species or system Hepacivirus hominis
Conditions: not given

Sequence of NS3 (A3EZJ3 whole entry): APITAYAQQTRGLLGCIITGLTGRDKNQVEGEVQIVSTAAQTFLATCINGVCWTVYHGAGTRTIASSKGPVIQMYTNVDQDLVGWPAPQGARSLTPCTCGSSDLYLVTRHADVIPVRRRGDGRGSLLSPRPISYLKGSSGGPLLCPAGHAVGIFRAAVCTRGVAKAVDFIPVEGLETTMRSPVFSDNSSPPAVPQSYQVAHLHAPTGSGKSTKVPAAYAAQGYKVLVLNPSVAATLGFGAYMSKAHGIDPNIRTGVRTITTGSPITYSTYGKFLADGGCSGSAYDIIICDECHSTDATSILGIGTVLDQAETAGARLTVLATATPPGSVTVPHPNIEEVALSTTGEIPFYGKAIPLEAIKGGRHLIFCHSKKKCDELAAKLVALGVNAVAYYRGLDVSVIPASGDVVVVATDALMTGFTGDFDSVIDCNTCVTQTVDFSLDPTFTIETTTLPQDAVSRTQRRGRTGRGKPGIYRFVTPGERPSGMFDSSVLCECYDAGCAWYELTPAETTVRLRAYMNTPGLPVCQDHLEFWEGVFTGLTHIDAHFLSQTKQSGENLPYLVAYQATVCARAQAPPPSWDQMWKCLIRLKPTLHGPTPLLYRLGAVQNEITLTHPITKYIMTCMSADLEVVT

SMILES	Ki [nM]
CCC[C@H](NC(=O)[C@@H]1C2CCCC2CN1C(=O)[C@@H](NC(=O)[C@@H](NC(=O)c1cnccn1)C(C)(C)C)C(C)(C)C)C(=O)C(=O)NC1CC1 (stereo partly specified)	160
CCCC(NC(=O)[C@@H]1C2CCCC2CN1C(=O)[C@@H](NC(=O)[C@@H](NC(=O)c1cnccn1)C1CCCCC1)C(C)(C)C)C(=O)C(=O)NC[C@@H](C)CC (stereo partly specified)	250
CCCC(NC(=O)[C@@H]1C2CCCC2CN1C(=O)[C@@H](NC(=O)[C@H](CC1CCCCC1)NC(=O)c1cnccn1)C(C)(C)C)C(=O)C(=O)NC1CC1 (stereo partly specified)	650
CC(C)(C)[C@H](NC(=O)[C@@H](NC(=O)c1cnccn1)C1CCCCC1)C(=O)N1CC2CCCC2[C@H]1C(=O)NC(CC(F)F)C(=O)C(=O)NC1CC1 (stereo partly specified)	20
CCCC(NC(=O)[C@@H]1[C@H]2CCC[C@H]2CN1C(=O)[C@@H](NC(=O)[C@@H](NC(=O)c1cnccn1)C1CCCCC1)C(C)(C)C)C(=O)C(=O)NC1CC1 (stereo partly specified)	70

Test system: Hepatitis C virus
Assay: Inhibitory concentration against hepatitis C virus in replicon assay
Assay type: functional, organism-based, Hepacivirus hominis
Conditions: not given

SMILES	IC50 [nM]
CCC[C@H](NC(=O)[C@@H]1C2CCCC2CN1C(=O)[C@@H](NC(=O)[C@@H](NC(=O)c1cnccn1)C(C)(C)C)C(C)(C)C)C(=O)C(=O)NC1CC1 (stereo partly specified)	1290
CCCC(NC(=O)[C@@H]1C2CCCC2CN1C(=O)[C@@H](NC(=O)[C@@H](NC(=O)c1cnccn1)C1CCCCC1)C(C)(C)C)C(=O)C(=O)NC[C@@H](C)CC (stereo partly specified)	1000
CCCC(NC(=O)[C@@H]1C2CCCC2CN1C(=O)[C@@H](NC(=O)[C@H](CC1CCCCC1)NC(=O)c1cnccn1)C(C)(C)C)C(=O)C(=O)NC1CC1 (stereo partly specified)	2810
CC(C)(C)[C@H](NC(=O)[C@@H](NC(=O)c1cnccn1)C1CCCCC1)C(=O)N1CC2CCCC2[C@H]1C(=O)NC(CC(F)F)C(=O)C(=O)NC1CC1 (stereo partly specified)	400
CCCC(NC(=O)[C@@H]1[C@H]2CCC[C@H]2CN1C(=O)[C@@H](NC(=O)[C@@H](NC(=O)c1cnccn1)C1CCCCC1)C(C)(C)C)C(=O)C(=O)NC1CC1 (stereo partly specified)	550

Biological target: not listed separately
Assay: Selectivity for HCV NS3 over human elastase
Conditions: not given

SMILES	selectivity ratio
CCC[C@H](NC(=O)[C@@H]1C2CCCC2CN1C(=O)[C@@H](NC(=O)[C@@H](NC(=O)c1cnccn1)C(C)(C)C)C(C)(C)C)C(=O)C(=O)NC1CC1 (stereo partly specified)	102
CC(C)(C)[C@H](NC(=O)[C@@H](NC(=O)c1cnccn1)C1CCCCC1)C(=O)N1CC2CCCC2[C@H]1C(=O)NC(CC(F)F)C(=O)C(=O)NC1CC1 (stereo partly specified)	392
CCCC(NC(=O)[C@@H]1[C@H]2CCC[C@H]2CN1C(=O)[C@@H](NC(=O)[C@@H](NC(=O)c1cnccn1)C1CCCCC1)C(C)(C)C)C(=O)C(=O)NC1CC1 (stereo partly specified)	62

Biological target: Procathepsin L (Homo sapiens, UniProt P07711)
Assay: Selectivity for HCV NS3 over human cathepsin L
Conditions: not given

Sequence of Procathepsin L (P07711 whole entry): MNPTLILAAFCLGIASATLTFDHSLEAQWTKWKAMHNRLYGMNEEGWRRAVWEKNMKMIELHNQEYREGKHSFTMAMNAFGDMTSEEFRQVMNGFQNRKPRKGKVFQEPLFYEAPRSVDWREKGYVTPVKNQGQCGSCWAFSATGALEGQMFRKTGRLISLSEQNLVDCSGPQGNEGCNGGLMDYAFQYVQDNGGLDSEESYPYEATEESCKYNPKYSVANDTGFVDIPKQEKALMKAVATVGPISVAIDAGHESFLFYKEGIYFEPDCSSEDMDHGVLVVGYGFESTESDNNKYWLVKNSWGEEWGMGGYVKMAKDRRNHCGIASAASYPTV

SMILES	selectivity ratio
CCC[C@H](NC(=O)[C@@H]1C2CCCC2CN1C(=O)[C@@H](NC(=O)[C@@H](NC(=O)c1cnccn1)C(C)(C)C)C(C)(C)C)C(=O)C(=O)NC1CC1 (stereo partly specified)	123
CC(C)(C)[C@H](NC(=O)[C@@H](NC(=O)c1cnccn1)C1CCCCC1)C(=O)N1CC2CCCC2[C@H]1C(=O)NC(CC(F)F)C(=O)C(=O)NC1CC1 (stereo partly specified)	760
CCCC(NC(=O)[C@@H]1[C@H]2CCC[C@H]2CN1C(=O)[C@@H](NC(=O)[C@@H](NC(=O)c1cnccn1)C1CCCCC1)C(C)(C)C)C(=O)C(=O)NC1CC1 (stereo partly specified)	134

— ChEMBL document CHEMBL1137885, “P4 and P1' optimization of bicycloproline P2 bearing tetrapeptidyl alpha-ketoamides as HCV protease inhibitors” (Bioorg Med Chem Lett, 2004)
